Structures are written as SMILES. Where two headings read alike, the source gives them in different places.

The source of these data is patent US10005756B2, “Pyrrolidinone derivatives as MetAP-2 inhibitors” (Merck Patent GmbH, priority 2014, dated 2018).

This experiment deals with human umbilical vein endothelial cells (HUVEC). The experiment in a line: HUVEC proliferation quantified by BrdU incorporation. The format is cell-based. Particulars: for IC50: read-out: IC50 HUVEC. How it is done:
Determination of the Proliferation Inhibition by Inhibitors of Methionine Aminopeptidase 2 in the BrdU Proliferation Test (Cellular Assay)
After detachment of the cells by means of trypsin/EDTA, the number of living cells is determined, and the cells are sown in a density of 1000 cells per cavity in a total volume of 175 μl (cavities are coated in advance either with supplemented culture medium for 1-2 hours at 37° C. or with 1.5% gelatine for 0.5-2 hours at 37° C.). After cultivation for 24 hours, the test substances are added in various concentrations (for example final concentrations 30 μM to 0.03 nM in 10-fold dilution steps) and a volume of 25 μl. The DMSO concentration is kept constant at 0.3%. […] To this end, the cells are treated with a fixative for 30 min at room temperature and subsequently incubated with a peroxidase-labelled anti-BrdU antibody (diluted 1:100 in antibody dilution buffer) for 60 min at room temperature. […] The colour development is stopped after 15 min by addition of 25 μl of a 1M sulfuric acid solution. […] The controls used are cavities containing DMSO-treated cells (100% control) or empty cavities (blank value).
HUVEC Proliferation Quantified by BrdU Incorporation
HUVEC Means Human Umbilical Vein Endothelial Cells
HUVEC proliferation is measured after a 5 day incubation period using incorporation of BrdU as a measure of cell cycle activity. Cells are incubated in the presence or absence of test substances. During the last 18 to 24 hours of the incubation period BrdU is added to the medium. BrdU is incorporated into the DNA as the cells progress through S-phase (DNA synthesis) of the cell cycle. The cells are fixed and the amount of BrdU incorporated can be quantified using a commercial ELISA for detection of BrdU.
HUVEC are routinely cultured in EGM MV medium and used between passages 3 and 8.
All substances are run in triplicate.
Reference compounds are run in every assay.
Data is analyzed using the Assay Explorer program. Briefly, the blank is subtracted from all values, the triplicates are averaged and normalized to the untreated. EC50 is determined from a 4-parameter general sigmoidal curve (Hill fit y=(s0−slnf)/(1+(x/AC50)^nHill)+slnf) in Assay Explorer, Symyx). The processed data (EC50 or % Effect if no EC50 if reached, Efficacy) is uploaded directly from Assay Explorer to the MSRDB.

Turning to `O=C(NCc1cc(F)cc(Cl)c1)[C@@]1(O)CCN(c2cccc(OC(F)(F)F)c2)C1=O` [Compound A67], the IC50 (HUVEC) amounted to 290 nM.

Regarding `O=C(NCc1cc(F)cc(Cl)c1)[C@@]1(O)CCN(c2ccc(OC(F)(F)F)cc2)C1=O` [Compound A65], where the note is “HUVEC”, the IC50 was determined as 1500 nM. Take `O=C(NCc1cc(F)cc(F)c1)[C@@]1(O)CCN(c2cnc3[nH]ccc3c2)C1=O` [Compound A78]: for the setting “HUVEC”, the IC50 was found to be 35 nM. For the compound `O=C(NCc1cc(F)cc(Cl)c1)C1(O)CCN(c2cccc(O)c2)C1=O` (centres unmarked) [Compound A18], the IC50 (HUVEC) came to 180 nM.

`O=C(NCc1cc(F)cc(Cl)c1)[C@@]1(O)CCN(c2cnc(Cl)c(F)c2)C1=O` [Compound A4]: where the note is “HUVEC”, the IC50 was 11000 nM. Take `Cc1nnc(-c2cc3cc(N4CC[C@](O)(C(=O)NCc5cc(F)cc(Cl)c5)C4=O)ccc3[nH]2)o1` [Compound A8]: the IC50 (HUVEC) was determined as 17 nM.

On to `O=CNCCCCNC(=O)c1cc2cc(N3CC[C@](O)(C(=O)NCc4cc(F)cc(Cl)c4)C3=O)ccc2[nH]1` [Compound A68], for which, where the note is “HUVEC”, the IC50 was 110 nM. Same read-out and setting: as for `O=C(NCc1cc(F)cc(Cl)c1)[C@@]1(O)CCN(c2cnc3[nH]cc(F)c3c2)C1=O` [Compound A53], the figure is 39 nM. Consider `CN(C)C(=O)CNC(=O)[C@H](CCC(N)=O)NC(=O)c1cc2cc(N3CC[C@](O)(C(=O)NCc4cc(F)cc(Cl)c4)C3=O)ccc2[nH]1` [Compound A51], for which, where the note is “HUVEC”, the IC50 turned out to be 8100 nM.

In the case of `O=C(NCc1cc(F)cc(Cl)c1)[C@@]1(O)CCN(c2ccc3[nH]c(-c4nnco4)cc3c2)C1=O` [Compound A9], the IC50 (HUVEC) stood at 14 nM. Consider `O=C(NCc1cc(F)cc(Cl)c1)C1(O)CCN(C(CO)c2ccccc2)C1=O` (centres unmarked) [Compound A21], for which the IC50 (HUVEC) was determined as 4200 nM. `C[S@@](=N)(=O)c1ccc(N2CC[C@](O)(C(=O)NCc3cc(F)cc(Cl)c3)C2=O)cc1` [Compound A69]: the IC50 (HUVEC) amounted to 300 nM. On the same count and under the same terms, as for `O=C(NCc1cc(F)cc(Cl)c1)[C@@]1(O)CCN(c2ccc3[nH]c(-c4nnn[nH]4)cc3c2)C1=O` [Compound A10], the figure is 3800 nM; as for `Cc1nc(-c2cc3cc(N4CC[C@](O)(C(=O)NCc5cc(F)cc(Cl)c5)C4=O)ccc3[nH]2)no1` [Compound A11], 24 nM; as for `O=C(NCc1cc(F)cc(Cl)c1)C1(O)CCN(c2ccc3[nH]c(Br)cc3c2)C1=O` (centres unmarked) [Compound A22], 130 nM. As to `NC(=O)CC[C@H](NC(=O)c1cc2cc(N3CC[C@](O)(C(=O)NCc4cc(F)cc(Cl)c4)C3=O)ccc2[nH]1)C(=O)N[C@@H](Cc1ccccc1)C(N)=O` [Compound A52], for the setting “HUVEC”, the IC50 was determined as 4400 nM. Turning to `N/C(=N\O)c1cc2cc(N3CC[C@](O)(C(=O)NCc4cc(F)cc(Cl)c4)C3=O)ccc2[nH]1` [Compound A6], the IC50 (HUVEC) is 30 nM. For `NCCCNC(=O)[C@H](CCC(N)=O)NC(=O)c1cc2cc(N3CC[C@](O)(C(=O)NCc4cc(F)cc(Cl)c4)C3=O)ccc2[nH]1` [Compound A50], the IC50 (HUVEC) is 3500 nM. Consider `CC(C)(C)OC(=O)C(CCC(N)=O)NC(=O)c1cc2cc(N3CC[C@](O)(C(=O)NCc4cc(F)cc(Cl)c4)C3=O)ccc2[nH]1` (stereo in doubt) [Compound A27], for which the IC50 (HUVEC) stood at 480 nM. Turning to `NC(=O)c1ccc2cc(N3CCC(O)(C(=O)NCc4cc(F)cc(Cl)c4)C3=O)ccc2n1` (centres unmarked) [Compound A83], where the note is “HUVEC”, the half-maximal inhibitory concentration (IC50) was determined as 500 nM. Still for that read-out and setting: under `O=C(NCc1cc(F)cc(Cl)c1)C1(O)CCN(c2ccc3c(c2)CS(=O)(=O)N3)C1=O` (centres unmarked) [Compound A42] stands 1300 nM; under `O=C(NCc1cc(F)cc(Cl)c1)C1(O)CCN(c2ccc3[nH]c(-c4ccc(Cl)cc4)nc3c2)C1=O` (centres unmarked) [Compound A25], 1300 nM.

For `NC(=O)c1cc2cc(N3CC[C@@](O)(C(=O)NCc4cc(F)cc(F)c4)C3=O)ccc2[nH]1` (stereo in doubt) [Compound A86], under “HUVEC”, the IC50 is 71 nM. Same read-out and setting: as for `O=C(NCc1cc(F)cc(F)c1)[C@@]1(O)CCN(c2cnc3[nH]cc(F)c3c2)C1=O` [Compound A89], the figure is 32 nM. Consider `C[C@H](c1ccccc1)N1CC[C@](O)(C(=O)NCc2cc(F)cc(Cl)c2)C1=O` [Compound A2], for which the IC50 (HUVEC) amounted to 7000 nM.

Turning to `C[S@](=N)(=O)c1ccc(N2CC[C@](O)(C(=O)NCc3cc(F)cc(Cl)c3)C2=O)cc1` [Compound A70], the IC50 (HUVEC) was 700 nM. Regarding `C[C@@H](c1ccccc1)N1CC[C@](O)(C(=O)NCc2cc(F)cc(Cl)c2)C1=O` [Compound A3], under “HUVEC”, the IC50 stood at 730 nM. Turning to `C[S@](=N)(=O)c1cccc(N2CC[C@](O)(C(=O)NCc3cc(F)cc(Cl)c3)C2=O)c1` [Compound A81], the IC50 (HUVEC) was 540 nM. As for `O=C(NCc1cc(F)cc(Cl)c1)C1(O)CCN(c2ccc3c(c2)CS(=O)(=O)C3)C1=O` (centres unmarked) [Compound A28], the IC50 (HUVEC) worked out at 530 nM.

`O=C(NCc1cc(F)cc(Cl)c1)C1(O)CCN(c2ccc3c(c2)CCOB3O)C1=O` (centres unmarked) [Compound A74]: under “HUVEC”, the IC50 turned out to be 14 nM.

For the compound `NC(=O)CC[C@H](NC(=O)c1cc2cc(N3CC[C@](O)(C(=O)NCc4cc(F)cc(Cl)c4)C3=O)ccc2[nH]1)C(=O)O` [Compound A39], where the note is “HUVEC”, the IC50 stood at 3100 nM.

With `CS(=N)(=O)c1ccc(N2CCC(O)(C(=O)NCc3cc(F)cc(Cl)c3)C2=O)cc1` (centres unmarked) [Compound A64, 3-hydroxy-1-(4-methanesulfoximinoyl-phenyl)-2-oxo-pyrrolidine-3-carboxylic acid 3-chloro-5-fluoro-benzylamide], where the note is “HUVEC”, the concentration for half-maximal inhibition (IC50) came to 6100 nM.

Take `O=C(NCc1cc(F)cc(Cl)c1)C1(O)C(=O)N(c2ccccc2)CC1O` (centres unmarked) [Compound A13]: the IC50 (HUVEC) turned out to be 2500 nM. With `O=C(NCc1cc(F)cc(Cl)c1)[C@@]1(O)C(=O)N(c2ccccc2)C[C@@H]1O` [Compound A87], under “HUVEC”, the IC50 amounted to 2300 nM. Same read-out and setting: as for `COc1ccc(Cn2ccc3cc(N4CC[C@](O)(C(=O)NCc5cc(F)cc(F)c5)C4=O)cnc32)cc1` [Compound A76], the figure is 260 nM; as for `O=C(NCc1cc(F)cc(F)c1)[C@@]1(O)CCN(c2cnc3[nH]cc(Cl)c3c2)C1=O` [Compound A79], 6.5 nM; as for `O=C(NCc1cc(F)cc(Cl)c1)C1(O)CCN(c2ccc(C(O)(C(F)(F)F)C(F)(F)F)cc2)C1=O` (centres unmarked) [Compound A29], 1500 nM.

Take `NCCCCNC(=O)c1cc2cc(N3CC[C@](O)(C(=O)NCc4cc(F)cc(Cl)c4)C3=O)ccc2[nH]1` [Compound A35]: the IC50 (HUVEC) was 51 nM. As for `CC(C)C(NC(=O)CN1CCC(O)(C(=O)NCc2cc(F)cc(Cl)c2)C1=O)C(=O)N(C)C` (centres unmarked) [Compound A46], the IC50 (HUVEC) was determined as 45 nM. `O=C(NCc1cc(F)cc(Cl)c1)C1=CCN(c2ccccc2)C1=O` [Compound A12]: under “HUVEC proliferation, BrdU incorporation”, the IC50 came out at 3300 nM. With `Nc1ccc(N2CCC(O)(C(=O)NCc3cc(F)cc(Cl)c3)C2=O)cc1/C=C/C(=O)O` (centres unmarked) [Compound A19], the IC50 (HUVEC) was 180 nM. `O=C(NCc1cc(F)cc(Cl)c1)[C@@]1(O)CCN(c2cnc3[nH]c(Cl)c(Cl)c3c2)C1=O` [Compound A62]: the IC50 (HUVEC) was 180 nM. As to `O=C(NCc1cc(F)cc(Cl)c1)[C@@]1(O)CCN(c2cccc(S(=O)(=O)N3CCNCC3)c2)C1=O` [Compound A1], the IC50 (HUVEC) amounted to 1000 nM.

With `O=C(NCc1cc(F)cc(Cl)c1)C1(O)CCN(c2cccc(-c3nnn[nH]3)c2)C1=O` (centres unmarked) [Compound A7], under “HUVEC”, the IC50 is 30000 nM.

As for `O=C(NCc1cc(F)cc(Cl)c1)C1(O)CCN(c2ccc3oc(=O)ccc3c2)C1=O` (centres unmarked) [Compound A16], the IC50 (HUVEC) was 3500 nM.

Turning to `COc1ccc(CN2c3ccc(N4CCC(O)(C(=O)NCc5cc(F)cc(Cl)c5)C4=O)cc3CS2(=O)=O)cc1` (centres unmarked) [Compound A43], where the note is “HUVEC”, the IC50 is 820 nM. Regarding `CCNS(=O)(=O)c1ccc(N2CC[C@](O)(C(=O)NCc3cc(F)cc(Cl)c3)C2=O)cc1` [Compound A5], the IC50 (HUVEC) was 190 nM. Turning to `O=C(NCc1cc(F)cc(Cl)c1)[C@@]1(O)CCN(c2ccc3c(c2)COB3O)C1=O` [Compound A41], the IC50 (HUVEC) is 260 nM.

As for `CS(=N)(=O)c1cccc(N2CCC(O)(C(=O)NCc3cc(F)cc(Cl)c3)C2=O)c1` (centres unmarked) [Compound A71], the IC50 (HUVEC) stood at 1400 nM. On to `O=C1Cc2cc(N3CC[C@](O)(C(=O)NCc4cc(F)cc(F)c4)C3=O)ccc2N1` [Compound A66], for which the IC50 (HUVEC) worked out at 76 nM. As for `CO[C@@H]1[C@H](OC(=O)NC(=O)CCl)CC[C@]2(CO2)[C@H]1[C@@]1(C)O[C@@H]1CC=C(C)C` [MSC1902850A, TNP-470, reference compound], the EC50 (HUVEC, reference compounds run in every assay, expected value, read-out: expected value (EC50) of reference compound) was 0.8 nM. As for `O=C(NCc1cc(F)cc(F)c1)[C@@]1(O)CCN(c2ccc3[nH]ncc3c2)C1=O` [Compound A75, (S)-3-Hydroxy-1-(1H-indazol-5-yl)-2-oxo-pyrrolidine-3-carboxylic acid 3,5-difluoro-benzylamide], the IC50 (HUVEC) amounted to 42 nM.

With `C[S@@](=N)(=O)c1cccc(N2CC[C@](O)(C(=O)NCc3cc(F)cc(Cl)c3)C2=O)c1` [Compound A82], the IC50 (HUVEC) was 310 nM.
